Assay results from patent US5389621A, “Method of enhancing the anticoagulant effects of aspirin using salicylamide” (University of Medicine and Dentistry of New Jersey, priority 1994, dated 1995).
Entries after “also recorded” stand apart in the source; their conditions may differ.

Key:
[1] = system: platelet cyclooxygenase; test: Thromboxane B2 synthesis by arachidonic acid-stimulated platelet-rich plasma in vitro; assay type: cell-based, male Sprague-Dawley rats; details: for Effect on TX B2 formation / platelet cyclooxygenase: arachidonic acid-stimulated PRP
From the text: Was done manually by the method of Brecher and Conkite (1953) using phase contrast microscopy (Balplan) with a 40×annulus, 40×phase objective, and 10×ocular (total of 400×), and a special platelet counting chamber (American Optical Corp., Buffalo, N.Y.) and dilution with 1% ammonium oxalate. The platelet-rich plasma (PRP) was adjusted by dilution with platelet-poor plasma (PPP) to give a final count of 1×10^9 platelets/ml.
Arachidonic acid (as the sodium salt, >99.0% pure) was obtained from Sigma Chemical Co. and a stock solution of 34.5 mM was prepared by dissolving in isotonic saline. 20 μl of the stock solution were added to 440 μl of PRP (400 μl of PRP and 20 or 40 μl of treatment solution ±20 μl of saline) to make a 23 fold dilution. The final concentration of AA in PRP was 1.5 mM.
EDTA solution was prepared by adding 2 gm disodium EDTA and 0.8 gm NaCl and were adjusted to pH 7.4 with NaOH and made up to a final volume of 100 ml in distilled water. ASA solution was prepared by dissolving 30 mg in 10 ml of isotonic saline to make a solution of 3 mg/ml.
950 μl of EDTA solution were added to 50 μl of ASA solution and the mixture was vortexed. 40 μl of the mixture were pipetted in the experiment test tubes to stop further prostaglandin production.
Platelet-rich plasma (PRP) was prepared from male Sprague-Dawley rats (300-325 gm). The blood was collected by heart puncture and added to 3.8% citrate solution, final volume 9:1, blood:citrate. The blood was centrifuged at 120×g (750 rpm) for 15 minutes at 4° C. to obtain PRP. The rest of the blood was spun at 1800×g (3000 rpm) for 10 minutes to get the PPP which was used later for dilution of the PRP to achieve the final desired platelet concentration of 1×10^9 platelets/ml. 400 μl of PRP, containing 4×10^8 platelets, were pipetted in polypropylene tubes and the following treatment groups were studied:
1--Baseline (-ve control) tubes: to measure the baseline production of Thromboxane B2 (TX B2) by platelets during the time of the experiment, 60 μl of saline were added and left for 10 minutes in a shaking water bath at 37° C.
2--Control (+ve control) tubes: 20 μl of arachidonic acid (AA) solution were added to achieve a final concentration of 1.5 mM and the tubes were incubated […].
3--ASA and/or SAM treatment tubes: 20 μl of ASA (final conc. 130 μg/ml), 20 μl of SAM solution (final conc. 40 μg/ml), 20 μl of ASA/SAM(L) solution (final conc. 130/40 μg/ml) or 20 μl of ASA/SAM(H) solution (final conc. 130/120 μg/ml) were added to PRP together with 20 μl of saline for 10 minutes, then 20 μl of AA solution were added for additional 10 minutes.
4--ASA/SA treatment: 20 μl of ASA/SA solution (final conc. 130/130 μg/ml) and 20 μl of saline were added to the tubes for 10 minutes before AA was added for further 10 minutes.
5--ASA/SA/SAM treatment: 20 μl of ASA/SA solution (130/130 μg/ml as final conc.) and 20 μl of […] in low (L) or high (H) concentrations (40 or 120 μg/ml, final conc.) were added simultaneously to PRP followed 10 minutes later by AA.
6--SAM/SA treatment: 20 μl of SAM solution (final conc. 40 μg/ml) and 20 μl of SA solution (final conc. 130 μg/ml) were added followed 10 minutes later by AA for additional 10 minutes.
Also, the effect of SAM when administered first to the platelets followed 10 minutes later by ASA was studied to know whether the effect of SAM is time dependent or not.
During the treatment, all the tubes were incubated at 37° C. in a shaking water bath. Ten minutes after the addition of AA, or saline (for the control tubes), the experiment was ended by addition of 40 μl of EDTA/ASA solution. The tubes were immediately centrifuged at 1800×g for 15 minutes at 4° C. to precipitate the platelets and 100 μl of the supernatant were obtained for estimation of their content of TX B2 using a specific radioimmunoassay (Amersham International) (vide infra).
Radioimmunoassay Procedure for Measurement of Thromboxane B2 and 6-keto PG F1alpha […]

[2] = Tightly protein-bound 14C radioactivity after 14C-aspirin; assay type: in vivo, male Sprague-Dawley rats
Method: Forty-eight rats were divided into two groups. The first group of rats was administered ASA, SAM or their combination in a dose approximately equal (w/w) to that in the commercially available combinations, e.g., BC® formula, when administered to humans, i.e., 10 and 3 mg/kg of ASA and SAM, respectively. The second group was administered double the dosage received by the first group.
The rats were anesthetized by light diethyl ether inhalation. A blood sample of nearly 3 ml was collected by cardiac puncture 1.5 hours after oral administration. The blood was transferred to chilled polyethylene tubes containing 30 μl of 50% (w/w) potassium fluoride to prevent hydrolysis of ASA. A 300 μl aliquot was pipetted in a scintillation vial to study the distribution in whole blood. The rest of the collected blood was immediately centrifuged at 1800×g for 10 minutes at 4° C. and the plasma was decanted. 100 μl of the plasma were pipetted in a scintillation vial for measurement of the total radioactivity and the rest of the plasma was stored immediately at -70° C. for later study of the distribution of the metabolites.
The plasma tightly protein-bound activity was measured by adding 100 μl of 10% trichloroacetic acid (TCA) to 100 μl of plasma in microcentrifuge tubes and vortexing the contents for 1 minute followed by centrifugation at 1800×g for 10 minutes. The supernatant was decanted and the tubes with the pellets in them were placed in scintillation vials each containing 15 ml of Aquasol-2 scintillation fluid. […] The radioactivity in the scintillation vials was counted in Beckman LS counter.

[3] = 1.5 hr, oral 14C-ASA 10 mg/kg, alone or with SAM 3 mg/kg
[4] = 1.5 hr, oral 14C-ASA 20 mg/kg, alone or with SAM 6 mg/kg

Change of tightly protein-bound 14C, high dose ([2]; 14C-ASA with SAM 20/6 mg/kg) | Change of tightly protein-bound 14C in kidney ([2]; low and high doses) | Structure (SMILES) | Effect of ASA addition to SAM/SA on TX B2 [1] | Effect on TX B2 formation / platelet cyclooxygenase [1] | Tightly protein-bound 14C in heart [2, 3] [μg ^14 C/gm tissue] | Tightly protein-bound 14C in kidney [2, 3] [μg ^14 C/gm tissue] | Tightly protein-bound 14C in liver [2, 3] [μg ^14 C/gm tissue] | Tightly protein-bound 14C in lung [2, 3] [μg ^14 C/gm tissue] | Tightly protein-bound 14C in plasma [2, 3] [μg ^14 C/ml plasma] | Tightly protein-bound 14C in heart [2, 4] [μg ^14 C/gm tissue] | Tightly protein-bound 14C in kidney [2, 4] [μg ^14 C/gm tissue] | Tightly protein-bound 14C in liver [2, 4] [μg ^14 C/gm tissue] | Tightly protein-bound 14C in lung [2, 4] [μg ^14 C/gm tissue] | Reversal of SA effect by SAM ([1]; SAM 40 μg/ml with ASA/SA) | Reversal of SA effect by SAM ([1]; SAM 120 μg/ml with ASA/SA) | Effect of SAM on ASA inhibition of TX B2 synthesis ([1]; SAM 40 or 120 μg/ml coadministered with ASA) | Effect on the aspirin-antagonistic effect of SA ([1]; platelet cyclooxygenase)
 |  | CC(=O)Oc1ccccc1C(=O)O [ASA, acetylsalicylic acid] | significant blocking of platelet cyclooxygenase | significant inhibition of TX B2 formation |  |  |  |  |  |  |  |  |  |  |  |  | 
 |  | CC(=O)Oc1ccccc1[14C](=O)O [^14 C-ASA] |  |  | 2.30 ± 0.28 | 3.85 ± 0.30 | 3.93 ± 0.04 | 1.62 ± 0.14 | 26.95 ± 2.67 | 5.79 ± 0.40 | 11.66 ± 0.29 | 9.81 ± 0.12 | 5.84 ± 0.40 |  |  |  | 
did not reach significant levels | not influenced | NC(=O)c1ccccc1O [SAM, Salicylamide] |  | did not change TX B2 production compared to control |  |  |  |  |  |  |  |  |  | ~ 60% | completely preempted SA effect | did not influence ASA inhibition of TX B2 synthesis; also recorded: did not alter ASA-induced inhibition of platelet cyclooxygenase | dose-dependently quench the aspirin-antagonistic effect of SA
